Values joined by “and” are separate entries in the source; they are usually repeats but may differ in a detail not shown here. Equal values may be shown once. Results filed as inconclusive are left out.
System: BDF1 mice, s.c. Lewis lung carcinoma, T/C %
Assay: NCI In Vivo Anticancer Drug Screen. Data for tumor model Lewis Lung Carcinoma (subcutaneous) in B6D2F1 (BDF1) mice
Procedure, shortened: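 First, mice carry a transplantable tumor. Next, groups receive either compound or vehicle. Finally, survival or tumor dimensions in the dosed animals are divided by the corresponding control figure.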

[1] = endpoint: median survival time, dose: 12.5 mg/kg/injection, schedule: Q01DX009 (ip), vehicle: saline with Tween-80, higher = longer survival
[2] = endpoint: median survival time, dose: 25.0 mg/kg/injection, schedule: Q01DX009 (ip), vehicle: saline with Tween-80, higher = longer survival
[3] = endpoint: median survival time, dose: 12.5 mg/kg/injection, schedule: Q01DX009 (ip), vehicle: Klucel (hydroxypropylcellulose) (HPC), higher = longer survival
[4] = endpoint: median survival time, dose: 25.0 mg/kg/injection, schedule: Q01DX009 (ip), vehicle: Klucel (hydroxypropylcellulose) (HPC), higher = longer survival
[5] = endpoint: median survival time, dose: 50.0 mg/kg/injection, schedule: Q01DX009 (ip), vehicle: Klucel (hydroxypropylcellulose) (HPC), higher = longer survival

With O=C(O)O.[Cd] as the compound, how does the T/C (endpoint: mean tumor weight, dose: 0.5 mg/kg/injection, schedule: Q01DX011 (ip), vehicle: carboxymethylcellulose (CMC), higher = larger tumour) read?
The T/C was 72 % of control.

Which T/C (endpoint: median survival time, dose: 6.25 mg/kg/injection, schedule: Q01DX009 (ip), vehicle: saline with Tween-80, higher = longer survival) does the source give for C=C/C(C)=C/[C@H](C)C(=O)C[C@H](O)CC1CC(=O)NC(=O)C1 here?
The T/C was 95 % of control.

What about the T/C [1] of the same compound?
Its T/C is 98 % of control.

And the T/C (endpoint: median survival time, dose: 12.5 mg/kg/injection, schedule: Q04DX003 (ip), vehicle: saline with Tween-80, higher = longer survival)?
The T/C was 98 % of control.

And the T/C [2]?
Its T/C is 97 % of control.

And the T/C (endpoint: median survival time, dose: 25.0 mg/kg/injection, schedule: Q04DX003 (ip), vehicle: saline with Tween-80, higher = longer survival)?
The T/C was 111 % of control.

And the T/C (endpoint: median survival time, dose: 50.0 mg/kg/injection, schedule: Q04DX003 (ip), vehicle: saline with Tween-80, higher = longer survival)?
Its T/C is 92 % of control.

What about the T/C (endpoint: median survival time, dose: 100.0 mg/kg/injection, schedule: Q04DX003 (ip), vehicle: saline with Tween-80, higher = longer survival) of the same compound?
Its T/C is 101 % of control.

Nc1ccc(OC(=O)Oc2ccc(N)cc2)cc1 was tested. Which T/C (endpoint: mean tumor weight, dose: 31.3 mg/kg/injection, schedule: Q01DX011 (ip), vehicle: saline, higher = larger tumour) did it give?
Its T/C is 60 % of control.

And the T/C (endpoint: mean tumor weight, dose: 62.5 mg/kg/injection, schedule: Q01DX011 (ip), vehicle: saline, higher = larger tumour)?
Its T/C is 79 % of control.

And the T/C (endpoint: mean tumor weight, dose: 125.0 mg/kg/injection, schedule: Q01DX011 (ip), vehicle: saline, higher = larger tumour)?
The T/C was 49 % of control.

What about the T/C (endpoint: mean tumor weight, dose: 250.0 mg/kg/injection, schedule: Q01DX011 (ip), vehicle: saline, higher = larger tumour) of the same compound?
Its T/C is 18 % of control.

Which results are given for CN(C)[C@@H]1C(=O)C(C(N)=O)=C(O)[C@]2(O)C(=O)C3C(=O)c4c(O)ccc(Cl)c4[C@](C)(O)[C@H]3C[C@@H]12 (stereo partly specified)?
T/C [3]: 117 % of control; T/C [4]: 120 % of control; T/C [5]: 102 % of control and 123 % of control

Which T/C (endpoint: median survival time, dose: 3.12 mg/kg/injection, schedule: Q01DX009 (ip), vehicle: saline with Tween-80, higher = longer survival) does the source give for S=C([S][Sn]([c]1ccccc1)([c]1ccccc1)[c]1ccccc1)N1CCCCC1 here?
Its T/C is 102 % of control.

And the T/C [1]?
The T/C was 94 % of control.

What about the T/C [2] of the same compound?
The T/C was 89 % of control.

Which results are given for OC1CC2CCC(C1)N2CCCN1c2ccccc2Sc2ccc(Cl)cc21 (stereo unspecified)?
T/C [3]: 95 % of control; T/C [4]: 96 % of control; T/C [5]: 99 % of control

Which results are given for NNc1nncc2ccccc12?
T/C (endpoint: mean tumor weight, dose: 13.0 mg/kg/injection, schedule: Q01DX011 (ip), vehicle: carboxymethylcellulose (CMC), higher = larger tumour): 111 % of control; T/C (endpoint: mean tumor weight, dose: 20.0 mg/kg/injection, schedule: Q01DX011 (ip), vehicle: carboxymethylcellulose (CMC), higher = larger tumour): 87 % of control; T/C (endpoint: mean tumor weight, dose: 30.0 mg/kg/injection, schedule: Q01DX011 (ip), vehicle: carboxymethylcellulose (CMC), higher = larger tumour): 110 % of control

Which T/C (endpoint: mean tumor weight, dose: 18.0 mg/kg/injection, schedule: Q01DX011 (ip), vehicle: water, higher = larger tumour) does the source give for C/C=C1\CN(C)[C@H]2Cc3c([nH]c4ccccc34)[C@@H](c3cc4[nH]c5c(c4cc3OC)CCN3C[C@H]4C[C@H](CC)[C@H]3[C@@]5(C(=O)OC)C4)C[C@H]1C2C(=O)OC (stereo partly specified) here?
Its T/C is 66 % of control.

What about the T/C (endpoint: mean tumor weight, dose: 27.0 mg/kg/injection, schedule: Q01DX011 (ip), vehicle: water, higher = larger tumour) of the same compound?
Its T/C is 81 % of control.

What about the T/C (endpoint: mean tumor weight, dose: 40.0 mg/kg/injection, schedule: Q01DX011 (ip), vehicle: water, higher = larger tumour) of the same compound?
The T/C was 62 % of control.

How did the T/C (endpoint: median survival time, dose: 12.5 mg/kg/injection, schedule: Q01DX009 (ip), vehicle: olive oil, sesame oil, peanut oil, higher = longer survival) turn out when Oc1ccccc1/C=N/NC(=S)NC1CC2C=CC1C2 (stereo unspecified) was run?
The T/C was 94 % of control.

And the T/C (endpoint: median survival time, dose: 100.0 mg/kg/injection, schedule: Q01DX009 (ip), vehicle: olive oil, sesame oil, peanut oil, higher = longer survival)?
Its T/C is 91 % of control.

What about the T/C (endpoint: median survival time, dose: 200.0 mg/kg/injection, schedule: Q01DX009 (ip), vehicle: olive oil, sesame oil, peanut oil, higher = longer survival) of the same compound?
Its T/C is 87 % of control.

CCCCCCCCCCCCO[P+](=O)OCCCCCCCCCCCC was tested. Which T/C (endpoint: mean tumor weight, dose: 50.0 mg/kg/injection, schedule: Q01DX011 (ip), vehicle: other, higher = larger tumour) did it give?
Its T/C is 122 % of control.

And the T/C (endpoint: mean tumor weight, dose: 100.0 mg/kg/injection, schedule: Q01DX011 (ip), vehicle: other, higher = larger tumour)?
The T/C was 98 % of control.

And the T/C (endpoint: mean tumor weight, dose: 200.0 mg/kg/injection, schedule: Q01DX011 (ip), vehicle: other, higher = larger tumour)?
The T/C was 76 % of control.

What about the T/C (endpoint: mean tumor weight, dose: 400.0 mg/kg/injection, schedule: Q01DX011 (ip), vehicle: other, higher = larger tumour) of the same compound?
Its T/C is 65 % of control.

And the T/C (endpoint: mean tumor weight, dose: 400.0 mg/kg/injection, schedule: Q01DX011 (ip), vehicle: saline, higher = larger tumour)?
Its T/C is 36 % of control.

And the T/C (endpoint: mean tumor weight, dose: 600.0 mg/kg/injection, schedule: Q01DX011 (ip), vehicle: saline, higher = larger tumour)?
Its T/C is 19 % of control.

What about the T/C (endpoint: mean tumor weight, dose: 900.0 mg/kg/injection, schedule: Q01DX011 (ip), vehicle: saline, higher = larger tumour) of the same compound?
Its T/C is 21 % of control.

What about the T/C (endpoint: median survival time, dose: 50.0 mg/kg/injection, schedule: Q01DX009 (ip), vehicle: saline, higher = longer survival) of the same compound?
The T/C was 108 % of control.

What about the T/C (endpoint: median survival time, dose: 100.0 mg/kg/injection, schedule: Q01DX009 (ip), vehicle: saline, higher = longer survival) of the same compound?
Its T/C is 99 % of control.

Which T/C (endpoint: median survival time, dose: 0.5 mg/kg/injection, schedule: Q01DX009 (ip), vehicle: saline with Tween-80, higher = longer survival) does the source give for CC(C)(C)c1ccc(CN2CCN(C(c3ccccc3)c3ccc(Cl)cc3)CC2)cc1 (stereo unspecified) here?
The T/C was 112 % of control.

What about the T/C (endpoint: median survival time, dose: 2.0 mg/kg/injection, schedule: Q01DX009 (ip), vehicle: saline with Tween-80, higher = longer survival) of the same compound?
Its T/C is 112 % of control and 155 % of control and 233 % of control.
